Literature values in patent US20130136752A1, “Ophthalmic Formulations” (OXIGENE, INC., priority 2010, published 2013).

Key:
[1] = tested on: vessels with anomalous structure
[2] = tested on: choroidal neovascularization (CNV); details: rho/VEGF mice, P7 to P21

COc1ccc(/C=C\c2cc(OC)c(OC)c(OC)c2)cc1OP(=O)(O)O [CA4P, combretastatin A4 phosphate]
systemic dose levels disrupting aberrant vessels ([1]; aberrant vessels induced by overexpression of VEGF or by exposure to elevated oxygen): 3 to 4 mg/kg | systemic dose level required for normal immature vessels ([1]; normal immature vessels induced by burn injury): 75 mg/kg | neovascular lesions at P21 ([2]; 2.2 mg/kg daily IP): numerous neovascular lesions | number of neovascular lesions and total area of neovascularization per retina versus vehicle ([2]; 4.0 mg/kg daily IP): significant reduction
